According to US7750047B2, “Modulators (inhibitors/activators) of histone acetyltransferases” (Jawaharlal Nehru Centre for Advanced Scientific Research, priority 2002, dated 2010):
Read-outs that look alike come from different tables or passages of the source. One block for each compound: values may come before it.

How the values were obtained:
[1] = test system: histone acetyltransferases; assay: HAT inhibition test of salicylic acid and benzoic acid; type: biochemical
Procedure: (§1) HAT assays were performed as described elsewhere (12). Briefly, indicated amounts of proteins/peptide were incubated in HAT-assay buffer containing 50 Mm Tris-HCl, Ph 8.0, 10% (v/v) glycerol, 1 Mm dithiothreitol, 1 Mm phenylmethyl sulfonyl fluoride, 0.1 Mm EDTA, Ph 8.0, 10 Mm sodium butyrate at 30° C. for 10 min in presence or absence of compound followed by the addition of 1 pi of 6.2 Ci/mmol [^3H]-acetyl Coenzyme A (acetyl-CoA) and were further incubated for another 10 min. The final reaction volume was 30 ul. The reaction mixture was then blotted onto P-81 (Whatman) filter papers and radioactive counts were recorded on a Wallac 1409 liquid scintillation counter.

[2] = molecular target: T1, p300 (Homo sapiens, UniProt Q09472); conditions: cited from earlier work
Target sequence in this assay (Q09472 whole entry, species assumed): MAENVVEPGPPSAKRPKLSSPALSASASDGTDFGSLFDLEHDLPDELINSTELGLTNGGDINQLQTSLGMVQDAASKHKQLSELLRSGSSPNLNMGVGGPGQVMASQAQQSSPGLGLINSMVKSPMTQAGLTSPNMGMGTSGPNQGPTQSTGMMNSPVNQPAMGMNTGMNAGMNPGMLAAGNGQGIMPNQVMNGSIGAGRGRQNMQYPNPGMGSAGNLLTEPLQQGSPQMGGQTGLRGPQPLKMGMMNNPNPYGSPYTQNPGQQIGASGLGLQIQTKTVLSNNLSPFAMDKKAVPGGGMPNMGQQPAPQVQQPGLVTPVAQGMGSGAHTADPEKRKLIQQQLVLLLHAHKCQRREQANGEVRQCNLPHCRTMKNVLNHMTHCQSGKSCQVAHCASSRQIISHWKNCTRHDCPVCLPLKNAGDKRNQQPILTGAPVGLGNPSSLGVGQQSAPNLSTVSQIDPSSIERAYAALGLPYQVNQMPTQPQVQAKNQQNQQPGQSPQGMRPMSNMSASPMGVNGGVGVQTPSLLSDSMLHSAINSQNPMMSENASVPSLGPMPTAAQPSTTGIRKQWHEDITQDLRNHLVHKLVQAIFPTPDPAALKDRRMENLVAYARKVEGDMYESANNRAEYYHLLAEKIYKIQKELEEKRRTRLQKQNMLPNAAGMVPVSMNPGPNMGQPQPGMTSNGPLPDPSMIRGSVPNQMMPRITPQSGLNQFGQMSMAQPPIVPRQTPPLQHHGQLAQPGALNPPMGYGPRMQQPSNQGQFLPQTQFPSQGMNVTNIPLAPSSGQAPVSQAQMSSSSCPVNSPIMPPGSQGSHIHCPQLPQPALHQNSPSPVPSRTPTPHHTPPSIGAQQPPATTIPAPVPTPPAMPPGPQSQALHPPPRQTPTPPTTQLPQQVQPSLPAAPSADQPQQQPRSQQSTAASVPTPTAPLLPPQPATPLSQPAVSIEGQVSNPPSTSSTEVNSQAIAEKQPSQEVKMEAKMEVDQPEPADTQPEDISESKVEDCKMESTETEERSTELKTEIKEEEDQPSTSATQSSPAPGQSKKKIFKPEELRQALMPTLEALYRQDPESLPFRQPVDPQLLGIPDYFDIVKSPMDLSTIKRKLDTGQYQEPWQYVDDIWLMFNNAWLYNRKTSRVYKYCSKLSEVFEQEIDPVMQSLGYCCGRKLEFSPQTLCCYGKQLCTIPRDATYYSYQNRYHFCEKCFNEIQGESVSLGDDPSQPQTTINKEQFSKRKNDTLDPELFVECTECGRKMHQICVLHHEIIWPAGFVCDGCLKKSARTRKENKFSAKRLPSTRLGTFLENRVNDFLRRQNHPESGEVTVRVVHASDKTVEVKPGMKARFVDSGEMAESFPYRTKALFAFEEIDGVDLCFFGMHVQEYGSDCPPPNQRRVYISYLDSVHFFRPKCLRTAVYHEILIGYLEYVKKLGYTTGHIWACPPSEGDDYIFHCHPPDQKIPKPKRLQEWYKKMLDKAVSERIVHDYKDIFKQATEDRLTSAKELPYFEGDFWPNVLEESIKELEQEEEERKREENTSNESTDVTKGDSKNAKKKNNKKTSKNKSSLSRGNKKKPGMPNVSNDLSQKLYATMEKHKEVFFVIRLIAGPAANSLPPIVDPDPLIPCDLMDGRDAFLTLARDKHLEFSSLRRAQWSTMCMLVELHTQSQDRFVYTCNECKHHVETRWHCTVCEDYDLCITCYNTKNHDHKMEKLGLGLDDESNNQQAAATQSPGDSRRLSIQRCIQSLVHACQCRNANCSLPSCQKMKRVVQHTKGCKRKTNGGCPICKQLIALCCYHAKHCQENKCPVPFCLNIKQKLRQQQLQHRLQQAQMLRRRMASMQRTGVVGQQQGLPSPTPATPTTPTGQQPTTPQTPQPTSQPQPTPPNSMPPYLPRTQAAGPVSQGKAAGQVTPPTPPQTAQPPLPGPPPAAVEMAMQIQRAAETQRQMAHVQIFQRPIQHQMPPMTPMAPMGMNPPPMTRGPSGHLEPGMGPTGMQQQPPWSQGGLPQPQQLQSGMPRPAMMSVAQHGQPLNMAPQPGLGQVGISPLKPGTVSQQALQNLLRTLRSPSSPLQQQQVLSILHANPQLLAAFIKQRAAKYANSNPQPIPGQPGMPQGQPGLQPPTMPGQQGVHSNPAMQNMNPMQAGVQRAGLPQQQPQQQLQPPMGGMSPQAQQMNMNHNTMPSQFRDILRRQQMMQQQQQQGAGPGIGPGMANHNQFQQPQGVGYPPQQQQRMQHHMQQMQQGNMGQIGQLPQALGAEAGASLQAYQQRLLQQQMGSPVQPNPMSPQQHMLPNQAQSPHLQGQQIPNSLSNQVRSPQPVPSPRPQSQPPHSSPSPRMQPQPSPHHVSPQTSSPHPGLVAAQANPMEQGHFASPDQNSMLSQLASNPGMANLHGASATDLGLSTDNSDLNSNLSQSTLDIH

[3] = molecular target: T1, p300; assay: HAT assay (filter binding) with p300 and core histones; type: biochemical; design: Full-length p300 was also purified from the recombinant baculovirus infected Sf21 cells as a His6-tagged protein; His6; made in house; host or cells: Sf21 insect cells (recombinant baculovirus)
Text: (§2) B: Biochemical Methods: Purification of Human Core Histones and Recombinant Proteins-Human core histones were purified from HeLa nuclear pellet as described previously (12). The FLAG epitope tagged Human Topoisomerase I, histone deacetylase 1 (HDAC1) and PCAF, were purified from the recombinant baculovirus infected insect cell line, Si 217 by the immunoaffinity purification using M2-agarose (SIGMA)(13). Full-length p300 was also purified from the recombinant baculovirus infected Sf21 cells as a His6-tagged protein through the Ni-NTA affinity column (Qiagen) as described previously (12). The His6-tagged nucleosome assembly protein 1 (NAP1), used for the in vitro chromatin assembly was purified from E. coli cells as previously reported (12) and the FLAG-tagged chimeric activator Ga14-VP16, expressed in E. coli and purified by immunoaffinity purification with M2 agarose. Human positive transcriptional coactivator, PC4, was expressed in E. coli and purified as described earlier (14).
as §1
Target sequence in this assay (Q09472 whole entry): as the sequence (Q09472 whole entry, species assumed) above
In order to characterize the inhibition kinetics of anacardic acid, filter-binding assays were done using constant amount of HeLa core histones in the presence or absence of AA with increasing concentrations of [3H]-acetyl CoA (see FIG. 3E). To visualize the radiolabeled acetylated histones, the reaction mixtures were resolved on 15% SDS-PAGE and processed for fluorography as described elsewhere (14).

[4] = molecular target: T1, p300; assay: In vitro p300 HAT-dependent transcription assay from chromatin template; type: biochemical; design: Full-length p300 was also purified from the recombinant baculovirus infected Sf21 cells as a His6-tagged protein; His6; made in house; host or cells: Sf21 insect cells (recombinant baculovirus)
Procedure: In Vitro Chromatin assembly: Chromatin template for in vitro transcription experiments was assembled and characterized as described earlier (8).
(§3) In Vitro Transcription Assay: Transcription assays were essentially carried out as described elsewhere (8), with minor modifications. The scheme of transcription is enumerated in FIG. 6A. Briefly, 30 ng of DNA/equivalent amount of chromatin template was incubated with 30 ng of activator (Gal4-VP16) in a buffer containing 4 mM HEPES (pH 7.8), 20 mM KCl, 2 mM DTT, 0.2 mM PMSF, 10 mM sodium butyrate, 0.1 mg/ml BSA, 2% glycerol (8). The activating compounds were added to the acetylation reaction along with p300 and acetyl-CoA, and incubated for 30 min. at 30° C. This was followed by addition of the p300 specific inhibitor Lysyl CoA (5 nom) to quench the acetylation reaction.
(§4) For inhibitors, the HAT p300 was pre-incubated with indicated amounts of inhibitor on ice for 20 min., following which it was added to the acetylation reaction in the transcription assay. […] The ^32P-radiolabeled transcript was extracted with phenol-chloroform, ethanol precipitated, dried pellet dissolved in loading dye (8 M Urea, 0.005% bromophenol blue and xylene cyanol) and analyzed on 5% urea-polyacrylamide gel. […] Quantification of transcription was done by Fuji BAS system. Quantitation of DNA and chromatin transcription data represents three independent experiments.
Target sequence in this assay (Q09472 whole entry): as the sequence (Q09472 whole entry, species assumed) above

[5] = molecular target: T2, PCAF (Homo sapiens, UniProt Q92831); assay: HAT assay (filter binding) with PCAF and core histones; type: biochemical
T2 construct: FLAG; made in house; host or cells: insect cell line (printed 'Si 217', probably Sf21), recombinant baculovirus
Text: as §2
HAT assays were performed as described elsewhere (12). […] The reaction mixture was then blotted onto P-81 (Whatman) filter papers and radioactive counts were recorded on a Wallac 1409 liquid scintillation counter.

[6] = test system: basal transcription machinery; assay: In vitro transcription assay from histone-free DNA template; type: biochemical, human; conditions: compared to DMSO control
Procedure: as §3
as §4, with “assay. For the DNA transcription assays and chromatin transcription inhibition assays, the Lysyl CoA step was omitted.” for “assay.”

T2 sequence (Q92831 whole entry): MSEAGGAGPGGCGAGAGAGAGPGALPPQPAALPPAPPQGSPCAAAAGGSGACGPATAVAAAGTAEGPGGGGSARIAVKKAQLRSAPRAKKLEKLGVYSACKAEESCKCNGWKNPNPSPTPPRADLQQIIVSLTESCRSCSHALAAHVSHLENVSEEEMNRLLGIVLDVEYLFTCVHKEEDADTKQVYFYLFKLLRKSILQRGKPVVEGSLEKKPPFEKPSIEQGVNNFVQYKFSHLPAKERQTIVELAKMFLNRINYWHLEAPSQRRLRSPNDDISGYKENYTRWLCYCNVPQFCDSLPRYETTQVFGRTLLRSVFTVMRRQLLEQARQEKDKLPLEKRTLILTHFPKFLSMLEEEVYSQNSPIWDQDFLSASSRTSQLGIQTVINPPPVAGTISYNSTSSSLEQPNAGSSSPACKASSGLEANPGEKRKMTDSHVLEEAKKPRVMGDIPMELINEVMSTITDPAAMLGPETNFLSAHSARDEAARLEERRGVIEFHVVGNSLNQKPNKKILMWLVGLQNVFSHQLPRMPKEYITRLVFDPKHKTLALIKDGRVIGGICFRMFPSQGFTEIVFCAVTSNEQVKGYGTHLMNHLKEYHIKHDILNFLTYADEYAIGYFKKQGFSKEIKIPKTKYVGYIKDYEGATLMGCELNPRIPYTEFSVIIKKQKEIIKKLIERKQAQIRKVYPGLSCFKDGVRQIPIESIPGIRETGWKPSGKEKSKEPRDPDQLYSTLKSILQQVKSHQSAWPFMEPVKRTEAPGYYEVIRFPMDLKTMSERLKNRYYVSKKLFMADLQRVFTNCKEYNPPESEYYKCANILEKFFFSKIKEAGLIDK

Compound: O=C(O)c1ccccc1O [salicylic acid]
inhibitory activity against histone acetyltransferases [1]: Neither salicylic acid nor benzoic acid shown any inhibitory activity

Compound: Lys-CoA
inhibition of HAT activity of p300 [2]: specifically inhibit

increase in histone acetylation levels [3]: ~5 fold
enhancement of p300 HAT activity ([3]; human core histones): specifically enhances
enhancement of levels of HAT-dependent transcription from chromatin template over DMSO control ([4]; added with p300 and acetyl CoA, 30 min acetylation): 1.6 fold
Compound: CCCCCCCCCCCCCCCc1cccc(OCC)c1C(=O)Nc1ccc(Cl)c(C(F)(F)F)c1 [CTPB, N-(4-Chloro-3-trifluoromethyl-phenyl)-2-ethoxy-6-pentadecyl-benzamide]

inhibitory activity towards p300 HAT activity [3]: inhibits
type of p300-HAT inhibition (double reciprocal plot 1/c.p.m. vs. 1/[Acetyl CoA]) ([3]; increasing [3H]-acetyl CoA, constant amount of core histones): non-competitive
inhibitory activity towards p300 HAT activity ([3]; listed as Anacardic acid): equally potent inhibitory activity
inhibition of p300 HAT activity dependent transcription from the chromatin template [4]: inhibits
inhibition of HAT activity of PCAF [5]: inhibits
Compound: CCCCCCCCCCCCCCCc1cccc(O)c1C(=O)O [anacardic acid, 2-hydroxy-6-pentadecylbenzoic acid]
effect on transcript levels from DNA template [6]: but not DNA transcription

Compound: O=C(O)c1ccccc1 [benzoic acid]
inhibitory activity against histone acetyltransferases [1]: Neither salicylic acid nor benzoic acid shown any inhibitory activity
